Results as given in PubChem BioAssay (NCI).
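The concentration for 50% growth inhibition is given as GI50. TGI is the concentration that stops growth completely.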

Assays:
Experiment in all cases: inhibition of tumour cell growth, NCI panel, 384-well format
786-0 renal = test system: 786-0 renal
CAKI-1 renal = test system: CAKI-1 renal
EKVX NSCLC = test system: EKVX NSCLC
IGROV1 ovarian = test system: IGROV1 ovarian
MCF7 breast = test system: MCF7 breast
MDA-MB-435 melanoma = test system: MDA-MB-435 melanoma
MOLT-4 leukemia = test system: MOLT-4 leukemia
NCI-H522 lung = test system: NCI-H522 lung
NCI/ADR-RES ovarian = test system: NCI/ADR-RES ovarian
OVCAR-3 ovarian = test system: OVCAR-3 ovarian
SF-295 CNS = test system: SF-295 CNS
SF-539 CNS = test system: SF-539 CNS
UO-31 renal = test system: UO-31 renal

COC1(C(=O)N2Cc3nc(Cl)nc(N[C@H](C)c4cc(N)cc(C(F)(F)F)c4)c3C2)CCOCC1
GI50 (786-0 renal): 16.5 µM
TGI (786-0 renal): 33.2 µM
GI50 (CAKI-1 renal): 6.99 µM
TGI (CAKI-1 renal): 35.4 µM
GI50 (EKVX NSCLC): 12.8 µM
TGI (EKVX NSCLC): 38.8 µM
GI50 (IGROV1 ovarian): 16.1 µM
TGI (IGROV1 ovarian): 33.6 µM
GI50 (MCF7 breast): 13.4 µM
TGI (MCF7 breast): 30 µM
GI50 (MDA-MB-435 melanoma): 17.9 µM
TGI (MDA-MB-435 melanoma): 36.9 µM
GI50 (MOLT-4 leukemia): 8.48 µM
TGI (MOLT-4 leukemia): 21 µM
GI50 (NCI-H522 lung): 12.5 µM
TGI (NCI-H522 lung): 34.4 µM
GI50 (NCI/ADR-RES ovarian): 17.5 µM
TGI (NCI/ADR-RES ovarian): 51.8 µM
GI50 (OVCAR-3 ovarian): 13.1 µM
TGI (OVCAR-3 ovarian): 26.2 µM
GI50 (SF-295 CNS): 15.1 µM
TGI (SF-295 CNS): 32.5 µM
GI50 (SF-539 CNS): 15.3 µM
TGI (SF-539 CNS): 28.7 µM
GI50 (UO-31 renal): 15.2 µM
TGI (UO-31 renal): 29.2 µM
